Assay results: patent US12037375B2, “Protein variant and composition for treating neurodegenerative disease using the same” (KOREA UNIVERSITY RESEARCH AND BUSINESS FOUNDATION, priority 2021, dated 2024)

System: SH-SY-5Y neuroblastoma cells
Assay: Cell viability by MTT assay
Assay type: cell-based
Settings: FIG. 4
Procedure: SH-SY-5Y neuroblastoma cells were purchased from the Korean Cell Line Bank (Seoul, South Korea) and incubated in a 1:1 mixture of Dulbecco's modified eagle medium/F-12 nutrient mixture ham (DMEM/F-12; WelGENE) supplemented with 10% fetal bovine serum (FBS; Capricorn Scientific GmbH, Ebsdorfergrund, Germany) and 1% antibiotic (10,000 U/mL penicillin G, 10,000 μg/mL streptomycin and 25 μg/mL amphotericin B; Hyclone, Logan, UT, USA). The antibiotic was sterilized through a 0.2 μm filter before use and the cells were incubated at 37° C. under humid conditions including 5% CO2.
Specifically, 15,000 cells were grown in each well of a 96-well plate and incubated for 24 hours. […] Then, the MTT solution was added to the medium and incubated at 37° C. for 3 hours to form the MTT-formazan product. The amount of the product was quantified as the extent of absorption at a wavelength of 540 nm.
Each test was conducted on three samples at a time and the entire test was repeated three times to ensure reproducibility.
Specifically, 15,000 cultured neuroblastoma were added with each of 1 uM of a monomer protein and 1 uM of a fibrous protein, and incubated for 2 days, and then the change in cytotoxicity was measured using MTT reagent.

## CC[C@H](C)[C@H](NC(=O)[C@H](C)NC(=O)CNC(=O)[C@H](CCCCN)NC(=O)[C@H](CC(N)=O)NC(=O)[C@H](CO)NC(=O)CNC(=O)[C@@H](NC(=O)[C@H](CC(=O)O)NC(=O)[C@H](CCC(=O)O)NC(=O)[C@H](C)NC(=O)[C@H](Cc1ccccc1)NC(=O)[C@H](CC(N)=O)NC(=O)[C@@H](NC(=O)[C@H](CC(C)C)NC(=O)[C@H](CCCCN)NC(=O)[C@H](CCC(N)=O)NC(=O)[C@H](Cc1c[nH]cn1)NC(=O)[C@H](Cc1c[nH]cn1)NC(=O)[C@@H](NC(=O)[C@H](CCC(=O)O)NC(=O)[C@H](Cc1ccc(O)cc1)NC(=O)CNC(=O)[C@H](CO)NC(=O)[C@H](CC(=O)O)NC(=O)[C@H](Cc1c[nH]cn1)NC(=O)[C@H](CCCNC(=N)N)NC(=O)[C@H](Cc1ccccc1)NC(=O)[C@H](CCC(=O)O)NC(=O)[C@H](C)NC(=O)[C@@H](N)CC(=O)O)C(C)C)C(C)C)C(C)C)C(=O)N[C@@H](CC(N)=O)C(=O)NCC(=O)N[C@@H](CC(N)=O)C(=O)N[C@@H](CCSC)C(=O)N[C@H](C(=O)NCC(=O)NCC(=O)N[C@H](C(=O)N[C@H](C(=O)N[C@H](C(=O)N[C@@H](CC(N)=O)C(=O)O)[C@@H](C)CC)C(C)C)C(C)C)C(C)C
  cytotoxicity: reduced cytotoxicity
